Measured values from paper PMC4861277, “The KISS1 Receptor as an In Vivo Microenvironment Imaging Biomarker of Multiple Myeloma Bone Disease” (PLoS ONE, 2016).
Ends that are not written are not given here.

Experiments:
[1] = system: KISS1R-expressing cell line MCF-7; assay: Fluorescence microscopy of probe binding to cultured MCF-7 cells; assay type: cell-based, human; settings: S2A Fig
Description: MSCs were seeded in a Nunc^TM Lab-Tek^TM II 4-well chamber slide (6.7x10^3 cells/well) (Thermo Fischer Scientific GmbH, Erlangen, Germany) and allowed to attach overnight. Afterwards, the medium was replaced by 500 μl mixed media, 1:1 (v/v), followed by 24 h incubation. The day after, 500 μl mixed media, 1:1 (v/v) containing 1x10^4 INA-6 cells or 1.5x10^5 MOPC cells, 500 μl MM cell-derived supernatant (conditioned media) or 500 μl mixed media, 1:1 (v/v) (control) was added per well. […] After rinsing three times with PBS, cells were fixed in 4% paraformaldehyde and mounted with Vectashield mounting media for fluorescence containing 4',6-diamidino-2-phenylindole (Vector Laboratories, Inc., purchased from Linaris, Dossenheim, Germany). Images were acquired using a BZ-9000 fluorescence microscope (Cy5 filter) and the softwares BZ-II Viewer and BZ-II Analyzer 2.1 (all from Keyence, Neu-Isenburg, Germany).
(§1) Supplementary file pone.0155087.s002.tif: S2 Fig Alexa 633-kisspeptin binds to the KISS1R-expressing cell line MCF-7 in vitro and in vivo. Cultured MCF-7 cells were incubated with either free dye or dye conjugated to the modified kisspeptin and imaged with fluorescence microscopy (A). […] Tibia fluorescence was quantified over time (D) and plateau fluorescent values determined (E). […]

[2] = system: MOPC315.BM2-LucGFP MM bone lesions; assay: In vivo time-lapse fluorescence imaging of MM bone lesions (MOPC model); settings: BALB/c mice with MOPC lesions in one hind leg, 100 μl of 40 μM probe i.v., imaged for 1 h, relative to pre-scan, n = 6, p<0.01 (Fig 5E)
Description: (§2) In vivo binding of Alexa 633-kisspeptin was tested in immune competent BALB/c and CD-1 nude mice, inoculated with MOPC cells and MCF-7 cells, respectively. All experiments were performed according to the German regulations for animal experimentation. The study was approved by the Regierung von Unterfranken as the responsible authority (Permit Number 55.2–2531.01-76/10 and -103/11) and by the institutional authorities of the Ethics Committee for Animal Experiments at the Christian Albrechts University of Kiel (V242-7224.121–17). 1x10^6 MCF-7 cells transfected with the near-infrared fluorescent protein [31] were suspended in 5 μl PBS and injected directly into the right tibia, with equal amounts of PBS injected into contralateral control limbs, of 3 female CD-1 nude mice (Charles River). Tumor progression was monitored using the NightOwl planar imaging system (Berthold Technologies, Bad Wildbad, Germany). 1x10^5 MOPC cells, suspended in 100 μl PBS, were injected i.v. via the lateral tail vein into immune-competent female BALB/c mice (Charles River). 19 days after the injection of the MM cells, mice were imaged by in vivo bioluminescence (BLI) to identify 6 mice which contain lesions in only one of the hind legs. All animals were kept in temperature and humidity-controlled, pathogen-free environment, with a 12 h light/dark cycle, and access to food and water ad libitum. […]

[3] = system: MCF-7 tumor-burdened tibiae; assay: In vivo fluorescence imaging of mice intratibially injected with MCF-7 cells; settings: CD-1 nude mice, intratibial MCF-7, 100 μl of 40 μM probe, NightOwl imaging for 20 min, plateau values, n = 3, p<0.05 (S2E Fig)
Description: as §2, with “Germany).” for “Germany). 1x10^5 MOPC cells, suspended in 100 μl PBS, were injected i.v. via the lateral tail vein into immune-competent female BALB/c mice (Charles River). 19 days after the injection of the MM cells, mice were imaged by in vivo bioluminescence (BLI) to identify 6 mice which contain lesions in only one of the hind legs. All animals were kept in temperature and humidity-controlled, pathogen-free environment, with a 12 h light/dark cycle, and access to food and water ad libitum.”
as §1

[4] = mouse, in vivo, iv
Description: BLI was performed with an IVIS Spectrum (Caliper-Xenogen, Alameda, CA, USA) as previously described [32]. Briefly, mice were anesthetized i.p. with a mixture of ketamine (100 mg/kg) and xylazine (10 mg/kg) in PBS. Luciferin (150 mg/kg) was co-injected and BLI measurements were started 10 min later. For MCF-7 mice, animals were imaged every minute following injection of 100 μl of Alexa 633-kisspeptin (40 μM) using the NightOwl. For MM-containing mice, a fluorescence pre-scan (excitation filter: 605 nm, emission filter: 660 nm; illumination time: 1 s) was performed using the IVIS Spectrum. Next, mice were injected with 100 μl of Alexa 633-kisspeptin (40 μM) in the lateral tail vein and immediately imaged every two minutes for up to 20 min using the fluorescence settings as described above. In addition, fluorescent images were acquired after 30, 45, and 60 min. At the end of the experiment mice were then euthanized, organs were prepared, and fluorescence ex vivo imaging of the organs was performed. Imaging data was analyzed with Living Image 4.0 (Caliper-Xenogen, Alameda, CA, USA) and Prism 5 software (GraphPad, La Jolla, CA, USA).
All statistical analyses were conducted using Prism 5 software. Comparison between groups was made using either a paired or unpaired two-sample t-tests. Comparison of organ fluorescence was conducted using a 1-way ANOVA and Turkey’s multiple comparison test. Alexa 633-kisspeptin binding kinetics were quantified using association then dissociation curves with time0 = 25 min and NS = 1. P values of <0.05 were considered to be statistically significant.

primary MSCs (KISS1R) = assay: Fluorescence microscopy of probe binding to primary MSCs (alone, conditioned media, direct co-culture with MM cells); assay type: cell-based, human; settings: for binding to primary MSCs under normal culture conditions: MSCs alone, room temperature, fluorescence microscopy (Cy5 filter), Fig 4A; for binding to primary MSCs under normal culture conditions / binding to MSCs and MM cells after direct co-culture: 30 min incubation, 40 μmol/l; for binding to MSCs and MM cells after direct co-culture: MSCs directly co-cultured 24 h with INA-6 or MOPC cells
Description: MSCs were seeded in a Nunc^TM Lab-Tek^TM II 4-well chamber slide (6.7x10^3 cells/well) (Thermo Fischer Scientific GmbH, Erlangen, Germany) and allowed to attach overnight. Afterwards, the medium was replaced by 500 μl mixed media, 1:1 (v/v), followed by 24 h incubation. The day after, 500 μl mixed media, 1:1 (v/v) containing 1x10^4 INA-6 cells or 1.5x10^5 MOPC cells, 500 μl MM cell-derived supernatant (conditioned media) or 500 μl mixed media, 1:1 (v/v) (control) was added per well. For preparation of the conditioned media, INA-6 cells (2x10^5 cells/ml) or MOPC cells (3.75x10^4 cells/ml) were cultured for one day in mixed media, 1:1 (v/v), followed by centrifugation (270 g, 5 min) and filtration of the supernatant (filter pore size: 0.45 μm). After 24 h, cells were incubated for 30 min with either free dye or the Alexa 633-kisspeptin (40 μmol/l) at room temperature. After rinsing three times with PBS, cells were fixed in 4% paraformaldehyde and mounted with Vectashield mounting media for fluorescence containing 4',6-diamidino-2-phenylindole (Vector Laboratories, Inc., purchased from Linaris, Dossenheim, Germany). Images were acquired using a BZ-9000 fluorescence microscope (Cy5 filter) and the softwares BZ-II Viewer and BZ-II Analyzer 2.1 (all from Keyence, Neu-Isenburg, Germany).

[5] = system: matrix metalloproteinase 2; settings: cited from earlier work
Source text: The data presented herein support KISS1R as a novel and promising new biomarker for myeloma bone disease, but still several questions remain. Firstly, while we have described the up-regulation of the KISS1R cells directly interacting with MM cells, little is known so far about the role of kisspeptin and the KISS1R in MM disease progression. It will be of great importance to understand the role of kisspeptin and the KISS1R in both bone marrow cells and MM, and to be aware of what potential side effects, either positive or negative, may be associated with targeting or activation of this system. ...

[6] = compared with 10, 13 and 14 amino acid isoforms; cited from earlier work

| Substance | binding to MCF-7 cells in vitro [1] | peak fluorescence in tumor-burdened limbs compared to contralateral sites [2] | fluorescence signal in tumor-burdened tibiae relative to contralateral controls [3] | organ uptake: kidney fluorescence [4] | organ uptake: liver fluorescence [4] | organ uptake: ovaries [4] | binding to MSCs cultured in MM cell conditioned media (primary MSCs (KISS1R); MSCs 24 h in INA-6 or MOPC conditioned media, 30 min with 40 μmol/l probe, Fig 4B) | binding to primary MSCs under normal culture conditions (primary MSCs (KISS1R)) | binding to MSCs and MM cells after direct co-culture (primary MSCs (KISS1R); Fig 4B) | cleavage by matrix metalloproteinase 2 [5] | stability of the 54 amino acid form relative to the shorter isoforms [6] |
| --- | --- | --- | --- | --- | --- | --- | --- | --- | --- | --- | --- |
| Alexa 633-kisspeptin: 54 amino acid kisspeptin with an N-terminal cysteine residue, labeled with Alexa Fluor 633 C5 Maleimide (C(Alexa Fluor 633 C5 maleimide)GTSLSPPPESSGSPQQPGLSAPHSRQIPAPQGAVLVQREKDLPNYNWNSFGLRF; ends and bridges not checked) | bound | Significantly greater peak fluorescence levels | significantly elevated signals | significantly high levels of fluorescence | significantly high levels of fluorescence | a notable amount of probe was also detected | low level probe binding | low level, heterogeneous binding | at high levels |  |  |
| Alexa Fluor 633 C5 Maleimide [free dye, reference compound] |  |  |  |  |  |  |  | no notable fluorescence | failed to show any specific binding |  |  |
| kisspeptin |  |  |  |  |  |  |  |  |  | cleaved and inactivated | higher stability |
